Source: patent US20230364118A1, “RIBITOL TREATMENT” (priority 2020, published 2023)
“Also recorded” adds a separate entry of the source. Read-outs that look alike come from different tables or passages of the source.

What was measured:
[1] = In vitro permeability study; format: in vitro ADME; details: human, Caco-2, 300 μg/mL
Protocol: (§1) The absorption of ribitol was evaluated in Caco-2 cells at a concentration of 300 μg/mL. The apparent permeability values for apical (A)-to-basal (B) and B-to-A transport were <0.4 and […], respectively.

[2] = tested on: Caco-2 cells; experiment: In vitro permeability study; format: in vitro ADME
Protocol: as §1

[3] = 28-day repeat-dose oral toxicokinetics; format: in vivo, Bama minipig; details: for AUC(0-t): read-out: AUC0-24
Protocol: Toxicokinetics of ribitol was evaluated as part of the 28-day toxicology study in male and female Bama minipig. […] Animals in control group were dosed for 28 days twice daily with the vehicle only (Purified Water). On Days 1 and 28, blood samples were collected at 0 (pre first dose), 0.5, 1, 2, 4, 6 (pre-second dose), 6.5, 7, 8, 10, 12, and 24 hours from all available animals.

[4] = 1.0 g/kg/dose BID (2.0 g/kg/day, NOAEL), Day 28, Female
[5] = 1.0 g/kg/dose BID (2.0 g/kg/day, NOAEL), Day 28, Male

SMILES: OC[C@@H](O)[C@@H](O)[C@@H](O)CO [ribitol, (2R,3s,4S)-Pentane-1,2,3,4,5-pentol]
- Papp A→B at 300 μg/mL ([1]; read-out: apparent permeability A-to-B): < 0.4 ×10⁻⁶ cm/s
- Papp B→A at 300 μg/mL ([1]; read-out: apparent permeability B-to-A): < 0.1 ×10⁻⁶ cm/s
- P-gp substrate [2]: not a P-glycoprotein (P-gp) substrate
- permeability class [2]: low permeability
- AUC0-24 [3, 4]: 1980 ± 1040 µg·h/mL
- Cmax [3, 4]: 281 ± 141 µg/mL
- AUC0-24 [3, 5]: 2560 ± 526 µg·h/mL
- Cmax [3, 5]: 475 ± 97.7 µg/mL
- drug accumulation ([3]; after 28-day repeated oral administration, any dose level): no marked drug accumulation; also recorded: no apparent ribitol drug accumulation
- Tmax ([3]; both sexes, Bama, minipig, plasma, oral, post dose and post second dose, Day 1 or Day 28, range): 0.5 to 2 h
- AUC(0-t) ([3]; female, Bama, minipig, plasma, po, 0.1 g/kg, 0.1 g/kg/dose BID, Day 1, Female, mean ± SD): 268 ± 129 µg·h/mL
- Cmax ([3]; female, Bama, minipig, plasma, po, 0.1 g/kg, 0.1 g/kg/dose BID, Day 1, Female, mean ± SD, read-out: Cmax): 39.6 ± 23.3 µg/mL
- Tmax ([3]; female, Bama, minipig, plasma, po, 0.1 g/kg, 0.1 g/kg/dose BID, Day 1, Female, median (range)): 5 h
- AUC(0-t) ([3]; female, Bama, minipig, plasma, po, 0.1 g/kg, 0.1 g/kg/dose BID, Day 28, Female, mean ± SD): 257 ± 82.6 µg·h/mL
- Cmax ([3]; female, Bama, minipig, plasma, po, 0.1 g/kg, 0.1 g/kg/dose BID, Day 28, Female, mean ± SD, read-out: Cmax): 37.2 ± 17.8 µg/mL
- Tmax ([3]; female, Bama, minipig, plasma, po, 0.1 g/kg, 0.1 g/kg/dose BID, Day 28, Female, median (range)): 7 h
- AUC(0-t) ([3]; female, Bama, minipig, plasma, po, 0.3 g/kg, 0.3 g/kg/dose BID, Day 1, Female, mean ± SD): 605 ± 83.4 µg·h/mL
- Cmax ([3]; female, Bama, minipig, plasma, po, 0.3 g/kg, 0.3 g/kg/dose BID, Day 1, Female, mean ± SD, read-out: Cmax): 98.4 ± 28 µg/mL
- Tmax ([3]; female, Bama, minipig, plasma, po, 0.3 g/kg, 0.3 g/kg/dose BID, Day 1, Female, median (range)): 4.3 h
- AUC(0-t) ([3]; female, Bama, minipig, plasma, po, 0.3 g/kg, 0.3 g/kg/dose BID, Day 28, Female, mean ± SD): 894 ± 125 µg·h/mL
- Cmax ([3]; female, Bama, minipig, plasma, po, 0.3 g/kg, 0.3 g/kg/dose BID, Day 28, Female, mean ± SD, read-out: Cmax): 139 ± 40.9 µg/mL
- Tmax ([3]; female, Bama, minipig, plasma, po, 0.3 g/kg, 0.3 g/kg/dose BID, Day 28, Female, median (range)): 4.3 h
- AUC(0-t) ([3]; female, Bama, minipig, plasma, po, 1 g/kg, 1.0 g/kg/dose BID (2.0 g/kg/day, NOAEL), Day 28, Female): 1980 µg·h/mL
- Cmax ([3]; female, Bama, minipig, plasma, po, 1 g/kg, 1.0 g/kg/dose BID (2.0 g/kg/day, NOAEL), Day 28, Female, read-out: Cmax): 281 µg/mL
- AUC(0-t) ([3]; female, Bama, minipig, plasma, po, 1 g/kg, 1.0 g/kg/dose BID, Day 1, Female, mean ± SD): 1770 ± 582 µg·h/mL
- Cmax ([3]; female, Bama, minipig, plasma, po, 1 g/kg, 1.0 g/kg/dose BID, Day 1, Female, mean ± SD, read-out: Cmax): 261 ± 82.4 µg/mL
- Tmax ([3]; female, Bama, minipig, plasma, po, 1 g/kg, 1.0 g/kg/dose BID, Day 1, Female, median (range)): 6.8 h
- Tmax ([3]; female, Bama, minipig, plasma, po, 1 g/kg, 1.0 g/kg/dose BID, Day 28, Female, median (range)): 7 h
- AUC(0-t) ([3]; female, Bama, minipig, plasma, po, 2 g/kg/day, 1.0 g/kg/dose BID (2.0 g/kg/day, NOAEL), Day 28, Female): 1980 µg·h/mL
- Cmax ([3]; female, Bama, minipig, plasma, po, 2 g/kg/day, 1.0 g/kg/dose BID (2.0 g/kg/day, NOAEL), Day 28, Female, read-out: Cmax): 281 µg/mL
- AUC(0-t) ([3]; male, Bama, minipig, plasma, po, 0.1 g/kg, 0.1 g/kg/dose BID, Day 1, Male, mean ± SD): 210 ± 75 µg·h/mL
- Cmax ([3]; male, Bama, minipig, plasma, po, 0.1 g/kg, 0.1 g/kg/dose BID, Day 1, Male, mean ± SD, read-out: Cmax): 39.8 ± 16.8 µg/mL
- Tmax ([3]; male, Bama, minipig, plasma, po, 0.1 g/kg, 0.1 g/kg/dose BID, Day 1, Male, median (range)): 6.8 h
- AUC(0-t) ([3]; male, Bama, minipig, plasma, po, 0.1 g/kg, 0.1 g/kg/dose BID, Day 28, Male, mean ± SD): 215 ± 68.9 µg·h/mL
- Cmax ([3]; male, Bama, minipig, plasma, po, 0.1 g/kg, 0.1 g/kg/dose BID, Day 28, Male, mean ± SD, read-out: Cmax): 37.2 ± 14.2 µg/mL
- Tmax ([3]; male, Bama, minipig, plasma, po, 0.1 g/kg, 0.1 g/kg/dose BID, Day 28, Male, median (range)): 3.8 h
- AUC(0-t) ([3]; male, Bama, minipig, plasma, po, 0.3 g/kg, 0.3 g/kg/dose BID, Day 1, Male, mean ± SD): 539 ± 215 µg·h/mL
- Cmax ([3]; male, Bama, minipig, plasma, po, 0.3 g/kg, 0.3 g/kg/dose BID, Day 1, Male, mean ± SD, read-out: Cmax): 104 ± 52.1 µg/mL
- Tmax ([3]; male, Bama, minipig, plasma, po, 0.3 g/kg, 0.3 g/kg/dose BID, Day 1, Male, median (range)): 4.3 h
- AUC(0-t) ([3]; male, Bama, minipig, plasma, po, 0.3 g/kg, 0.3 g/kg/dose BID, Day 28, Male, mean ± SD): 585 ± 227 µg·h/mL
- Cmax ([3]; male, Bama, minipig, plasma, po, 0.3 g/kg, 0.3 g/kg/dose BID, Day 28, Male, mean ± SD, read-out: Cmax): 123 ± 78.2 µg/mL
- Tmax ([3]; male, Bama, minipig, plasma, po, 0.3 g/kg, 0.3 g/kg/dose BID, Day 28, Male, median (range)): 0.8 h
- AUC(0-t) ([3]; male, Bama, minipig, plasma, po, 1 g/kg, 1.0 g/kg/dose BID (2.0 g/kg/day, NOAEL), Day 28, Male): 2560 µg·h/mL
- Cmax ([3]; male, Bama, minipig, plasma, po, 1 g/kg, 1.0 g/kg/dose BID (2.0 g/kg/day, NOAEL), Day 28, Male, read-out: Cmax): 475 µg/mL
- AUC(0-t) ([3]; male, Bama, minipig, plasma, po, 1 g/kg, 1.0 g/kg/dose BID, Day 1, Male, mean ± SD): 1930 ± 373 µg·h/mL
- Cmax ([3]; male, Bama, minipig, plasma, po, 1 g/kg, 1.0 g/kg/dose BID, Day 1, Male, mean ± SD, read-out: Cmax): 365 ± 93.6 µg/mL
- Tmax ([3]; male, Bama, minipig, plasma, po, 1 g/kg, 1.0 g/kg/dose BID, Day 1, Male, median (range)): 3.8 h
- Tmax ([3]; male, Bama, minipig, plasma, po, 1 g/kg, 1.0 g/kg/dose BID, Day 28, Male, median (range)): 0.8 h
